Patent US8853257B2, “Succinimide derivatives as ocular hypotensive agents” (priority 2005, dated 2014)
Values joined by “and” are separate entries in the source; they are usually repeats but may differ in a detail not shown here. Equal values may be shown once.

What was measured:
[1] = tested on: Dark Agauti (DA) pigmented rats; assay: Effect of topical ethosuximide on intraocular pressure in rats (Tono-Pen); type: in vivo; details: for IOP, treated eye (T), individual rats: one value per rat; for IOP, treated eye (T), Average X: rats
Description: Preliminary ocular pharmacodynamic studies were conducted to study the effect of ethosuximide on the intraocular pressure in rats by measuring IOP before and after administration of ethosuximide. IOP measurements were taken by a tonopen instrument. Ethosuximide was applied as a viscous solution obtained from Petnidan® capsules (Desitin, Hamburg, Germany). A recent study at Alcon Research laboratory (Pang I H, Wang W H, Clark A F: Acute effects of glaucoma medications on rat intraocular pressure, Exp Eye Res 2005, February; 80(2)207-14) has shown rats to be a proper animal model for glaucoma study. Another study at the Casey Eye Institute (Moore C G, Milne S T, Morrison J C: Noninvasive measurements of rat intraocular pressure with the Tono-Pen. Invest. Opthalmol. Vis. Sci. 1993 February; 34(2)363-9) has shown that a tonopen can be used reliably to measure IOP in normal rat eye.
Six Dark Agauti (DA) pigmented rats, (250-300 g in weight) were slightly sedated with 1.5-2 mg (0.15-0.2 ml) of intraperitoneal xylazine. One eye of each rat was randomly selected to receive topical administration of 50 µl of 250 mg/0.2 ml ethosuximide solution (content of Petnidan capsules). The second (control) eye received 50 µl of viscoelastic solution without the active ingredient (Viscotears™ manufactured by Novartis, Switzerland). At t=0 (immediately before) and at 30, 60 and 120 minutes after administration, topical anesthetic benoxinate was applied to both eyes and the intraocular pressures (IOP) were measured by a Tono-Pen XL tonometer (Medtronics). IOP values were recorded as the mean value of 6-10 successive measurements to minimize variability. The code, namely which eye of a pair was treated, was unknown to the technician who performed the IOP measurements. One rat expired after 1 hour due to excessive sedation. Five rats completed the experiment. In 2 out of 6 eyes that received the drug (vs. 1 of 6 eyes that were administered viscoelastic vehicle) a mild to moderate limbal vascular congestion was noticed, which tended to subside at 60 minutes.
At the end of the experiment, the code was broken and the IOP values in control and treated eyes were compared by statistical analysis.

[2] = tested on: normo-tensive New Zealand White (NZW) rabbits; assay: Effect of topical ethosuximide on intraocular pressure in rabbits (Tono-Pen); type: in vivo; details: for IOP, treated eye (T), individual rabbits: one value per rabbit
Description: Another study was conducted, in order to study the effect of ethosuximide on the intraocular pressure in rabbits by measuring IOP before and after administration of ethosuximide. IOP measurements were taken by a tonopen instrument. Ethosuximide was applied as a viscous solution obtained from Petnidan® capsules (Desitin, Hamburg, Germany).
Five fully awake, normo-tensive New Zealand White (NZW) rabbits, (each approximately 3.0 kg in weight) were used in this study. One eye of each rabbit was randomly selected to receive topical administration of 50 μl of 250 mg/0.2 ml ethosuximide solution (content of Petnidan capsules). The second (control) eye received 50 μl of viscoelastic solution without the active ingredient (Viscotears™ manufactured by Novartis, Switzerland). At t=0 (baseline, immediately before) and at 0.5, 1, 2, 4 and 6 hours after administration, topical anesthetic benoxinate was applied to both eyes and the intraocular pressures were measured by a Tono-Pen XL tonometer (Medtronics). IOP values were recorded as the mean value of 6-10 successive measurements to minimize variability. The code, namely which eye of a pair was treated, was (unknown to the technician who performed the IOP measurements. In 3 out of 5 eyes that received the drug (vs. 1 of 5 eyes that were administered viscoelastic vehicle) a mild to moderate limbal vascular congestion was noticed, which tended to subside at 60 minutes. In one treated eye the congestion persisted for two hours. At the end of the experiment, the code was broken and the IOP values in control and treated eyes were compared. The results are summarized in Table 2.

[3] = 60 min after topical administration
[4] = 120 min after topical administration

CCC1(C)CC(=O)NC1=O (centres unmarked) [ethosuximide]
IOP, treated eye (T), individual rats ([1]; 30 min after topical 50 ul of 250 mg/0.2 ml ethosuximide solution): 17 mmHg and 16 mmHg and 15 mmHg and 15.3 mmHg and 20.5 mmHg and 22 mmHg | IOP, treated eye (T), Average X ([1]; 30 min after topical administration): 17.6 mmHg | IOP, treated eye (T), individual rats [1, 3]: 21.3 mmHg (2×) and 30 mmHg and 18 mmHg and 14.6 mmHg | IOP, treated eye (T), Average X [1, 3]: 21.0 mmHg | IOP, treated eye (T), individual rats [1, 4]: 22 mmHg and 17 mmHg and 19 mmHg and 20.5 mmHg and 20.2 mmHg | IOP, treated eye (T), Average X [1, 4]: 19.7 mmHg | eyes with mild to moderate limbal vascular congestion ([1]; rat eyes that received the drug (vs. 1 of 6 vehicle eyes), tended to subside at 60 minutes): 2 out of 6 | IOP, treated eye (T), individual rabbits ([2]; 0.5 hour after topical 50 μl of 250 mg/0.2 ml ethosuximide solution): 17.3 mmHg and 18.3 mmHg and 16.3 mmHg and 19.7 mmHg and 20.0 mmHg | IOP, treated eye (T), Mean ([2]; 0.5 hour, rabbits): 18.3 mmHg | IOP, treated eye (T), individual rabbits ([2]; 1 hour after topical administration): 12.8 mmHg and 16.0 mmHg and 15.0 mmHg and 19.7 mmHg and 18.5 mmHg | Δ IOP, difference in mean IOP (T − C) ([2]; 1 hour, p .557): −0.6 mmHg | IOP, treated eye (T), Mean ([2]; 1 hour, rabbits): 16.0 mmHg | IOP, treated eye (T), individual rabbits ([2]; 2 hours after topical administration): 17.3 mmHg and 20.0 mmHg and 19.6 mmHg and 16.3 mmHg and 19.8 mmHg | Δ IOP vs t = o, mean IOP of treated eyes ([2]; 2 hours versus baseline, p .420): −1.4 mmHg | IOP, treated eye (T), Mean ([2]; 2 hours, rabbits): 18.6 mmHg | IOP, treated eye (T), individual rabbits ([2]; 4 hours after topical administration): 15.5 mmHg and 15.8 mmHg and 13.0 mmHg and 12.5 mmHg and 17.5 mmHg | IOP, treated eye (T), Mean ([2]; 4 hours, rabbits): 14.9 mmHg | IOP, treated eye (T), individual rabbits ([2]; 6 hours after topical administration): 19.5 mmHg and 20.0 mmHg and 13.5 mmHg and 19.4 mmHg and 16.0 mmHg | Δ IOP vs t = o, mean IOP of treated eyes ([2]; 6 hours versus baseline, p .404): −2.3 mmHg | Δ IOP, difference in mean IOP (T − C) ([2]; 6 hours, p .920): +0.1 mmHg | IOP, treated eye (T), Mean ([2]; 6 hours, rabbits): 17.7 mmHg | eyes with mild to moderate limbal vascular congestion ([2]; rabbit eyes that received the drug (vs. 1 of 5 vehicle eyes), tended to subside at 60 minutes): 3 out of 5 | treated eyes in which the congestion persisted for two hours ([2]; rabbits): one
